Assay results published in ChEMBL document CHEMBL3352457 (Bioorg Med Chem Lett, 2015).
Activity calls are given as the source filed them. The calls are words filed in the database; no cut-off is given here.

What was measured:
[1] = biological target: T1, Neurotensin receptor type 2 (Rattus norvegicus) (UniProt Q63384); assay: Antagonist activity at rat neurotensin receptor type 2 expressed in CHOK1 cells assessed as inhibition of SR142948a-induced calcium release at 10 uM by FLIPR assay; assay type: functional, cell-based; conditions: CHO-K1
T1 sequence (whole entry): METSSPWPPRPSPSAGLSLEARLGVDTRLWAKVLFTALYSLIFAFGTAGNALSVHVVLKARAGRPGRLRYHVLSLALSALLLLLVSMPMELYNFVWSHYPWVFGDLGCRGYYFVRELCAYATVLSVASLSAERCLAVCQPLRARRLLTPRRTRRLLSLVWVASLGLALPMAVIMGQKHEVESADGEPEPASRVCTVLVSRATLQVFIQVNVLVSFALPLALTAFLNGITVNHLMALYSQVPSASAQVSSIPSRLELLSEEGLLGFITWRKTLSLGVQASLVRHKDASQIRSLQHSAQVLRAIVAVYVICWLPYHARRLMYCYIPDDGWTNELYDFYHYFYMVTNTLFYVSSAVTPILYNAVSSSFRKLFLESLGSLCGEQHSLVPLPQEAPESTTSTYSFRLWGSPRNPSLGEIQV

[2] = biological target: Neurotensin receptor type 1 (Rattus norvegicus) (UniProt P20789); assay: Agonist activity at rat neurotensin receptor type 1 expressed in CHOK1 cells assessed as increase in calcium release at 10 uM by FLIPR assay; assay type: functional, cell-based; conditions: CHO-K1
Neurotensin receptor type 1 (Rattus norvegicus), sequence (P20789 whole entry): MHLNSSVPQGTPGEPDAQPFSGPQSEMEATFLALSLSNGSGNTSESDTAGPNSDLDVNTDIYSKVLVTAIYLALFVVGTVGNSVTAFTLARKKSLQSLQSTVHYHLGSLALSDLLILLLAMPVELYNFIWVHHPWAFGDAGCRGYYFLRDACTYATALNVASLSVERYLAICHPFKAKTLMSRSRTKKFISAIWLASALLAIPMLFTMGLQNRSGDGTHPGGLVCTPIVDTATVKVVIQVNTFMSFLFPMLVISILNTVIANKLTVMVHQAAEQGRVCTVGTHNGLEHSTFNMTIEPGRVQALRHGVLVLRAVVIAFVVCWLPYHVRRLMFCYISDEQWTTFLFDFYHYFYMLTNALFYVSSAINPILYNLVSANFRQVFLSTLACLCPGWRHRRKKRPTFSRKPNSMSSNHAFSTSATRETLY

[3] = biological target: Neurotensin receptor type 1 (Rattus norvegicus) (UniProt P20789); assay: Antagonist activity at rat neurotensin receptor type 1 expressed in CHOK1 cells assessed as inhibition of calcium release at 10 uM by FLIPR assay; assay type: functional, cell-based; conditions: CHO-K1
[4] = biological target: T1, Neurotensin receptor type 2 (Rattus norvegicus); assay: Agonist activity at rat neurotensin receptor type 2 expressed in CHOK1 cells assessed as increase in calcium release at 10 uM by FLIPR assay; assay type: functional, cell-based; conditions: CHO-K1
[5] = biological target: T2, Neurotensin receptor type 2 (Rattus norvegicus, UniProt Q63384); assay: Agonist activity at rat neurotensin receptor type 2 expressed in CHOK1 cells assessed as increase in calcium release by FLIPR assay; assay type: functional, cell-based, CHO-K1
T2 sequence (Q63384 whole entry): T1 sequence (whole entry)

[6] = biological target: Neurotensin receptor type 1 (Rattus norvegicus, UniProt P20789); assay: Displacement of [[…]]NT from rat neurotensin receptor type 1 expressed in CHOK1 cells by radioligand binding assay; assay type: cell-based, CHO-K1
Neurotensin receptor type 1, sequence (P20789 whole entry): as above

[7] = biological target: T2, Neurotensin receptor type 2; assay: Displacement of [[…]]NT from rat neurotensin receptor type 2 expressed in CHOK1 cells by radioligand binding assay; assay type: cell-based, CHO-K1
[8] = biological target: T1, Neurotensin receptor type 2 (Rattus norvegicus); assay: Agonist activity at rat neurotensin receptor type 2 expressed in CHOK1 cells assessed as increase in calcium release by FLIPR assay relative to SR142948a; assay type: functional, cell-based; conditions: CHO-K1
[9] = biological target: Neurotensin receptor type 1 (Rattus norvegicus) (UniProt P20789); assay: Agonist activity at rat neurotensin receptor type 1 expressed in CHOK1 cells assessed as increase in calcium release by FLIPR assay; assay type: functional, cell-based; conditions: CHO-K1
[10] = biological target: T2, Neurotensin receptor type 2; assay: Antagonist activity at rat neurotensin receptor type 2 expressed in CHOK1 cells assessed as inhibition of SR142948a-induced calcium release by FLIPR assay; assay type: functional, cell-based, CHO-K1

| Compound | inhibition [1] | Activity [2] | inhibition [3] | Activity [4] | EC50 [5] [nM] | Ki [6] [nM] | Ki [7] [nM] | Emax [8] [%] | Activity [9] | IC50 [10] [nM] |
| --- | --- | --- | --- | --- | --- | --- | --- | --- | --- | --- |
| O=C(O)c1ccc(NC(=S)NC(=O)C(c2ccccc2)c2ccccc2)cc1Cl | inactive | inactive | inactive | inactive |  |  |  |  |  |  |
| O=C(O)c1cccc(NC(=S)NC(=O)C(c2ccccc2)c2ccccc2)c1 | inactive | inactive | inactive | inactive |  |  |  |  |  |  |
| COc1cccc(OC)c1-c1cc(C(=O)NC2(C(=O)O)C3CC4CC(C3)CC2C4)nn1-c1ccc(C(=O)N(C)CCCN(C)C)cc1C(C)C (centres undefined) |  |  |  |  | 18 | 2 | 7 |  |  |  |
| COc1cccc(OC)c1-c1nc(C(=O)NC2(C(=O)O)CCCCC2)nc2ccc(Cl)cc12 |  |  |  |  | 145 |  | 959 | 26 | inactive |  |
| O=C(O)c1cc(Nc2nc(-c3ccccc3)c3cc(Cl)ccc3n2)ccc1O | 20% | inactive | inactive | inactive |  |  |  |  |  |  |
| O=C1NC(=O)N(c2ccc(C(=O)O)cc2)C(=O)/C1=C/c1c(OCc2ccccc2)ccc2ccccc12 | inactive | inactive | inactive | inactive |  |  |  |  |  |  |
| Cc1ccc(C(=O)O)cc1NC(=S)NC(=O)C(c1ccccc1)c1ccccc1 | inactive | inactive | inactive | inactive |  |  |  |  |  |  |
| Cc1c(NC(=S)NC(=O)C(c2ccccc2)c2ccccc2)cccc1C(=O)O | inactive | inactive | inactive | inactive |  |  |  |  |  |  |
| COc1cccc(OC)c1-c1nc(C(=O)N[C@H](C(=O)O)C2CCCCC2)nc2ccc(Cl)cc12 |  |  |  |  |  |  | 474 |  | inactive | 1070 |

Continued, values first:

| inhibition [1] | Activity [2] | inhibition [3] | Activity [4] | EC50 [5] [nM] | Ki [6] [nM] | Ki [7] [nM] | Emax [8] [%] | Activity [9] | IC50 [10] [nM] | Compound |
| --- | --- | --- | --- | --- | --- | --- | --- | --- | --- | --- |
| inactive | inactive | inactive | inactive |  |  |  |  |  |  | COc1ccc(C(=O)N/C(=C\c2cccc([N+](=O)[O-])c2)C(=O)N[C@@H](CC(C)C)C(=O)O)cc1 |
| inactive | inactive | inactive | inactive |  |  |  |  |  |  | COc1ccc(C(=O)N/C(=C\c2ccccc2)C(=O)N[C@H](C(=O)O)C(C)C)cc1 |
| inactive | inactive | inactive | inactive |  |  |  |  |  |  | COc1ccc(C(=O)O)cc1NC(=S)NC(=O)C(c1ccccc1)c1ccccc1 |
| inactive | inactive | inactive | inactive |  |  |  |  |  |  | CC(C)[C@H](NC(=O)/C(=C/c1ccccc1)NC(=O)c1ccccc1)C(=O)O |
| inactive | inactive | inactive | inactive |  |  |  |  |  |  | COc1ccccc1C(=O)N/C(=C\c1ccc2c(c1)OCO2)C(=O)N[C@H](C(=O)O)C(C)C (stereo in doubt) |
